Paper PMC3780361 (Bioorganic & medicinal chemistry, 2013)

System: M. tuberculosis strains resistant to 1
Type: cell-based

## O=C(Nc1nnc(C2CCC2)o1)NC1C2CC3CC(C2)CC1C3 (centres unmarked) [Compound 51, 1-(2-adamantyl)-3-(5-cyclobutyl-1,3,4-oxadiazol-2-yl)urea]
  Cross resistance with strains resistant to 1: confirmed as on target against MmpL3

## CC(C)(C)c1cc(NC(=O)NC2C3CC4CC(C3)CC2C4)no1 (centres unmarked) [Compound 46, 1-(2-adamantyl)-3-(5-t-butylisoxazol-3-yl)urea]
  Cross resistance with strains resistant to 1: confirmed as on target against MmpL3
